Values of other authors as cited in patent publication US20210169075A1, “ANTIBIOFILM FORMULATIONS AND METHODS FOR MICROBIAL DECONTAMINATION” (priority 2019, published 2021).
≈ marks a conversion by molar mass, not a printed value.

Conditions: aqueous

In the case of `C=CC(=C)CCC=C(C)C` [Myrcene, myrcene], the solubility concentration is listed as 4.09 mg/L (≈ 30 µM).
